Measured values reported in patent US20250002471A1 (Gilead Sciences, Inc., priority 2020, published 2025).

Legend:
[1] = target: T1, TLR7 (Homo sapiens, UniProt Q9NYK1); assay: Human PBMC cell-based assay, TLR7 agonist GS-986 stimulation, cytokine (IL-6 and IFNα) readout; conditions: human PBMCs, GS-986 400 nM, 6 hours; Table 26; read-out: TLR-7 EC50
T1 construct: lymphocytes, monocytes and dendritic cells that express TLR7, TLR8 and TLR9; endogenous in cells; host or cells: human PBMCs from healthy donors
T1 sequence (Q9NYK1 27-1049): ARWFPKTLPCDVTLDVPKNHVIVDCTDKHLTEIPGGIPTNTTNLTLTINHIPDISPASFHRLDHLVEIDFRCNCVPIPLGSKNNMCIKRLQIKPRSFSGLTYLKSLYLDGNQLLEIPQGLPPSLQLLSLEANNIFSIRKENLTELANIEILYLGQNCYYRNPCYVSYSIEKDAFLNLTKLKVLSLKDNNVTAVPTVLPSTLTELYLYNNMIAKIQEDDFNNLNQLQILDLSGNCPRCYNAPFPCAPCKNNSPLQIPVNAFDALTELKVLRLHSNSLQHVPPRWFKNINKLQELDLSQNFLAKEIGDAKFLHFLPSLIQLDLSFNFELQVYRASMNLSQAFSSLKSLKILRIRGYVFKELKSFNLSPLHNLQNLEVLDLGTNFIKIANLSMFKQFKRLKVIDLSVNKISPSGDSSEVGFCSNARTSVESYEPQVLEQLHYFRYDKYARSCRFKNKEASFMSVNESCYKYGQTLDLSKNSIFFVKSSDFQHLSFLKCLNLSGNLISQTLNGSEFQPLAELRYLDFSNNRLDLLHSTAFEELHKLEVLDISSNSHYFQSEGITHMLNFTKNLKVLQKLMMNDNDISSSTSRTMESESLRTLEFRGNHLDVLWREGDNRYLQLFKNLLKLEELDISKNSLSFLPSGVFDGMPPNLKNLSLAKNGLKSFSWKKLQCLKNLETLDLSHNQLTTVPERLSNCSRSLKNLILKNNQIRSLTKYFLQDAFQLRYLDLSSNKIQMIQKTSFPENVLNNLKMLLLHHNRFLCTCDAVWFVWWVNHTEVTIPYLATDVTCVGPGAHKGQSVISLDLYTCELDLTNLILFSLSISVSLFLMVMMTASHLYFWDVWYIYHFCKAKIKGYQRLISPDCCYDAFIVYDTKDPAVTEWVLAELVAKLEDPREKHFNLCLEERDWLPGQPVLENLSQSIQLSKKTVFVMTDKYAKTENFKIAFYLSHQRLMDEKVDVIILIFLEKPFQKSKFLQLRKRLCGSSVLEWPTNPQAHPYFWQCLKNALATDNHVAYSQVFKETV
Excerpt: (§1) Human peripheral blood mononuclear cells (PBMCs) consist of lymphocytes, monocytes and dendritic cells that express TLR7, TLR8 and TLR9. These cells respond to TLR7, TLR8 and TLR9 ligand stimulation and produce cytokines and chemokines in vitro and in vivo. Human PBMCs are therefore suitable to be used in a cell-based assay to assess the in vitro potency of a TLR 7, 8, and/or 9 antagonist. The result is expected to be more translatable to the pharmacodynamics response in vivo than cell line-based assays.
(§2) Cryopreserved human PBMCs from healthy donors were thawed and resuspended in RPMI-1640 media with L-glutamine (Corning) supplemented with 10% Fetal Bovine Serum (Hyclone) and 1X Penicillin-Streptomycin (Corning). After counting, the cell density was adjusted to 2 million cells/ml and incubated for 1 hour at 37° C., 5% CO2 for recovery. Following the recovery, the cells were plated by adding 50p per well (100,000 cells) to 384-well cell culture plates (Greiner) containing 250nl of test antagonists in 100% DMSO per well, in a 10 points dose response in quadruplicates. PBMCs were incubated in the presence of test antagonists for one hour at 37° C., 5% CO2 before being stimulated with a TLR7 or TLR9 agonist. GS-986 (Gilead Sciences) was used as the TLR7 agonist at a final concentration of 400 nM. ODN-2216 (InvivoGen) was used as the TLR9 agonist at a final concentration of 3μM. PBMCs were incubated in the presence of the test antagonist and the TLR7 (or TLR9) agonist for an additional 6 hours at 37° C., 5% CO2. At the end of the incubation, the cell culture plates were centrifuged at 500 g for 5 min, and the cell culture supernatant was collected. The level of cytokines (IL-6 and IFNα) in the supernatant was measured by electrochemiluminescence immunoassays (Mesoscale Discovery) following manufacturer's recommended protocols. The level of cytokine measured was plotted against the test antagonist concentration and fitted to a sigmoidal function to determine the EC50, which are shown below in Table 26.

[2] = target: T2, TLR9 (Homo sapiens, UniProt Q9NR96); assay: Human PBMC cell-based assay, TLR9 agonist ODN-2216 stimulation, cytokine (IL-6 and IFNα) readout; conditions: human PBMCs, ODN-2216 3 μM, 6 hours; Table 26; read-out: TLR-9 EC50
T2 construct: lymphocytes, monocytes and dendritic cells that express TLR7, TLR8 and TLR9; endogenous in cells; host or cells: human PBMCs from healthy donors
T2 sequence (Q9NR96 26-1032): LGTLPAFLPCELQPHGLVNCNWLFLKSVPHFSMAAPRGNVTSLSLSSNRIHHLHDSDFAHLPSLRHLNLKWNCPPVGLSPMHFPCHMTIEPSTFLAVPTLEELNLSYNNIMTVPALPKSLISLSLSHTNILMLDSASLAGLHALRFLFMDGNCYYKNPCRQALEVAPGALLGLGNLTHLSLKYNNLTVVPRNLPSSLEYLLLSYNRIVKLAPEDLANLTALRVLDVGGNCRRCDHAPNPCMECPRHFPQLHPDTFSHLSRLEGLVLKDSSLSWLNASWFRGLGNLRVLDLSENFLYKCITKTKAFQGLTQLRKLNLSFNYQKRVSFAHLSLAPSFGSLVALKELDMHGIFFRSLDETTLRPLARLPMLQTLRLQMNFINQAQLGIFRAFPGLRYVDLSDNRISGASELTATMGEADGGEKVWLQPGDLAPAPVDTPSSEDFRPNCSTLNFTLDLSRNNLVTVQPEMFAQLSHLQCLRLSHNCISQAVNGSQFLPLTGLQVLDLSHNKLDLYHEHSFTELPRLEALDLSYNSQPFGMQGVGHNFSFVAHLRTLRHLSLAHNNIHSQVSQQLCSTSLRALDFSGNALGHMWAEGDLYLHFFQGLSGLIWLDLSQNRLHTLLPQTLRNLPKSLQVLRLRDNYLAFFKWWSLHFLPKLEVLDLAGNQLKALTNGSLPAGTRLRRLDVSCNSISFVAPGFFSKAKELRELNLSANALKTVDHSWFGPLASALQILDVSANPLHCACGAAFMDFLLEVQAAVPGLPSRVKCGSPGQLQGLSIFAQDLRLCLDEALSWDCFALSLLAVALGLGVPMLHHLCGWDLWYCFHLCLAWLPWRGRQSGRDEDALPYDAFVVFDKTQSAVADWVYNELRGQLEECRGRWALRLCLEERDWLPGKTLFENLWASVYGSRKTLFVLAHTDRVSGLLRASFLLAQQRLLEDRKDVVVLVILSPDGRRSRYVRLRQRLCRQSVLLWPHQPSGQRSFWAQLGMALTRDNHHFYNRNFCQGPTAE
Excerpt: as §1, §2

EC50 [1] [nM]	EC50 [2] [nM]	Molecule
22.8	56.3	Cc1cc(-c2[nH]c3cc(-c4cnc(N5CCNCC5)c(C)c4)ccc3c2C)cc(C)n1 [Example 3]
26.1	153	Cc1cc(-c2[nH]c3cc(-c4ccc(N5CCNCC5)nc4C)ccc3c2C)cc(C)n1 [Example 4]
154	227	Cc1cc(-c2[nH]c3cc(-c4ccc(N)nc4)ccc3c2C)cc(C)n1 [Example 5]
15.8	84.5	Cc1cc(-c2[nH]c3cc(-c4cnn(C5CCNCC5)c4)ccc3c2C)cc(C)n1 [Example 6]
170	87.2	Cc1cc(-c2[nH]c3cc(-c4ccc(CN5CCNCC5)cc4)ccc3c2C)cc(C)n1 [Example 7]
84.3	84.4	Cc1cc(-c2[nH]c3cc(-c4ccc(C(=O)N5CCNCC5)cc4)ccc3c2C)cc(C)n1 [Example 8]
38.1	50.5	Cc1cc(-c2[nH]c3cc(-c4cnc5c(c4)CNCC5)ccc3c2C)cc(C)n1 [Example 9]
210	392	Cc1cc(-c2[nH]c3cc(-c4cnn5c4CNCC5)ccc3c2C)cc(C)n1 [Example 10]
345	228	Cc1cc(-c2[nH]c3cc(-c4cn(C5CCNCC5)nc4C)ccc3c2C)cc(C)n1 [Example 11]
103	47.3	Cc1cc(-c2[nH]c3cc(-c4cccc(C(=O)N5CCNCC5)c4)ccc3c2C)cc(C)n1 [Example 12]
102	19.3	Cc1cc(-c2[nH]c3cc(-c4ccc5c(c4)CCNC5)ccc3c2C)cc(C)n1 [Example 13]
213	108	Cc1cc(-c2[nH]c3cc(-c4ccc5c(c4)CNCC5)ccc3c2C)cc(C)n1 [Example 14]
53.6	55.6	Cc1cc(-c2[nH]c3cc(-c4ccc5c(c4)CNC5)ccc3c2C)cc(C)n1 [Example 15]
254	275	Cc1cc(-c2[nH]c3cc(-c4cnn(CCN)c4)ccc3c2C)cc(C)n1 [Example 16]
124	73.6	Cc1cc(-c2[nH]c3cc(-c4cnn(C5CCNC5)c4)ccc3c2C)cc(C)n1 (centres unmarked) [Example 17]
89.9	87.6	Cc1cc(-c2[nH]c3cc(-c4cnn(C5CCCNC5)c4)ccc3c2C)cc(C)n1 (centres unmarked) [Example 18]

EC50 [1] [nM]	EC50 [2] [nM]	Molecule
163	109	Cc1cc(-c2[nH]c3cc(-c4cccc5c4CNC5)ccc3c2C)cc(C)n1 [Example 19]
119	88.5	Cc1cc(-c2[nH]c3cc(-c4ccc5c(c4)CC(N)C5)ccc3c2C)cc(C)n1 (centres unmarked) [Example 20]
8.6	28.3	Cc1cc(-c2[nH]c3cc(-c4ccc(N5CCC(N)CC5)nc4)ccc3c2C)cc(C)n1 [Example 21, 1-(5-(2-(2,6-dimethylpyridin-4-yl)-3-methyl-1H-indol-6-yl)pyridin-2-yl)piperidin-4-amine]
64.4	153	Cc1cc(-c2[nH]c3cc(-c4ccc(N5CCNC6(CC6)C5)nc4)ccc3c2C)cc(C)n1 [Example 22, 6-(6-(4,7-diazaspiro[2.5]octan-7-yl)pyridin-3-yl)-2-(2,6-dimethylpyridin-4-yl)-3-methyl-1H-indole]
8.3	89.6	Cc1cc(-c2[nH]c3cc(-c4ccc(NC5CCNCC5)nc4)ccc3c2C)cc(C)n1 [Example 24]
5.9	39.1	Cc1cc(-c2[nH]c3cc(-c4ccc(N5CCC[C@@H](N)C5)nc4)ccc3c2C)cc(C)n1 [Example 25]
31	40.2	Cc1cc(-c2[nH]c3cc(-c4ccc(N5CCC[C@H](N)C5)nc4)ccc3c2C)cc(C)n1 [Example 26]
	1340	Cc1cc(-c2[nH]c3cc(-c4ccc5c(c4)CCCN5)ccc3c2C)cc(C)n1 [Example 43]
1.37		Cc1c(-c2cc(C)c3ncnn3c2)[nH]c2cc(-c3cnc4c(c3)CNCC4)ccc12 [Example 170]
0.11		Cc1c(-c2cc(C)c3ncnn3c2)[nH]c2cc(-c3ccc4nc([C@H]5N[C@@H]6CC[C@H]5C6)[nH]c4c3)ccc12 [Example 171]
1.01		Cc1c(-c2cc(C)c3ncnn3c2)[nH]c2cc(-c3ccc4c(c3)ncn4C3CC4CC3CN4)ccc12 (centres unmarked) [Example 176]
1.66		CCc1c(-c2cc(C)c3ncnn3c2)[nH]c2cc(-c3ccc(N4CCN(CC(N)=O)CC4)nc3)ccc12 [Example 177, 2-(4-(5-(3-ethyl-2-(8-methyl-[1,2,4]triazolo[1,5-a]pyridin-6-yl)-1H-indol-6-yl)pyridin-2-yl)piperazin-1-yl)acetamide]
483		Cc1c(-c2cc(C)c3ncnn3c2)[nH]c2cc(-c3nc4ccccc4[nH]3)ccc12 [Example 193, 6-[6-(1H-benzimidazol-2-yl)-3-methyl-1H-indol-2-yl]-8-methyl-[1,2,4]triazolo[1,5-a]pyridine]
631		Cc1c(-c2cc(C)c3ncnn3c2)[nH]c2cc(-c3nc4ccccc4n3C)ccc12 [Example 194]
4.48		Cc1cc(-c2[nH]c3cc(-c4ccc5nc([C@@H]6N[C@H]7CC[C@@H]6C7)[nH]c5c4)ccc3c2C)cc(C)n1 [Example 195, 2-[(1S,3R,4R)-2-azabicyclo[2.2.1]heptan-3-yl]-6-[2-(2,6-dimethyl-4-pyridyl)-3-methyl-1H-indol-6-yl]-1H-benzimidazole]

Molecule	EC50 [1] [nM]	EC50 [2] [nM]
2-(2,6-dimethylpyridin-4-yl)-3-methyl-6-(1′,2′,3′,6′-tetrahydro-[2,4′-bipyridin]-5-yl)-1H-indole [Example 133]	24.8	50.4
